Data published in PMC9112895, “Selective Inhibition of Plasmodium falciparum ATPase 6 by Artemisinins and Identification of New Classes of Inhibitors after Expression in Yeast” (Antimicrobial Agents and Chemotherapy, 2022).

Experiments:
[1] = molecular target: T1, A623E/S769N PfATP6 (Plasmodium falciparum, UniProt Q08853, A623E/S769N); test: Yeast whole-cell assay, PfATP6 A623E/S769N double mutant; type: cell-based; details: read-out: IC50 (mean ± SD)
T1 construct: expressed in transfected cells; host or cells: Saccharomyces cerevisiae K667-derived strain
T1 sequence (Q08853 1-1228 A623E/S769N): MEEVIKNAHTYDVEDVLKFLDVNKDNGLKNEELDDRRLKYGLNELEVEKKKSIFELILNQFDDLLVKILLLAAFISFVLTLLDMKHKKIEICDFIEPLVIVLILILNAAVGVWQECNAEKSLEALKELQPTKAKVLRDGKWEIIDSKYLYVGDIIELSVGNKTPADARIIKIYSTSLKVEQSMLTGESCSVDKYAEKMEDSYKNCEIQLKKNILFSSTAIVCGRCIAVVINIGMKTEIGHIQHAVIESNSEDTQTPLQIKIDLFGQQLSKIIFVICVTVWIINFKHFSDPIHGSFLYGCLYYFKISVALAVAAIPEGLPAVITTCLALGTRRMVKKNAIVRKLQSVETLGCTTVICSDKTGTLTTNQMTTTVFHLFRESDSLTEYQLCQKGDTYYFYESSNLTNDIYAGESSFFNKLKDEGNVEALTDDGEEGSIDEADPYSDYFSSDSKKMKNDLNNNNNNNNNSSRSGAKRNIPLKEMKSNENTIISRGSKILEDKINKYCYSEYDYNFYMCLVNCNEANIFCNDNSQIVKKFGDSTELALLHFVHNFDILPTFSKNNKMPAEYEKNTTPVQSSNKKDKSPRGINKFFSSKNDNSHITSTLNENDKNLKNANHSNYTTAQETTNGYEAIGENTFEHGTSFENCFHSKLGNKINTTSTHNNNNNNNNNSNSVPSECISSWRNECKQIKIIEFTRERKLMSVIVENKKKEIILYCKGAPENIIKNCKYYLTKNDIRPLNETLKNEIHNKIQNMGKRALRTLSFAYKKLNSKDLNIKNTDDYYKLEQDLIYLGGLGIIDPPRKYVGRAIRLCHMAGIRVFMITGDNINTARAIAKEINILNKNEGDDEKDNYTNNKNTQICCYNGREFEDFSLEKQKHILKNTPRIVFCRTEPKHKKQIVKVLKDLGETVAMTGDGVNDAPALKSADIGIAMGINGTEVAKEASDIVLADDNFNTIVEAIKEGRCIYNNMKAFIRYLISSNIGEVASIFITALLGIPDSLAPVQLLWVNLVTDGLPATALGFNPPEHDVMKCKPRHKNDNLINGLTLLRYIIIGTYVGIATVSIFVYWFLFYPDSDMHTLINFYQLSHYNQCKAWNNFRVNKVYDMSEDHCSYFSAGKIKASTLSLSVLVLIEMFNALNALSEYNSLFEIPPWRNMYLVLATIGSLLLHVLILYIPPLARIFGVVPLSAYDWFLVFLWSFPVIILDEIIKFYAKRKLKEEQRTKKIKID
Description: Yeast transformations were performed using the method described by Gietz and Schiestl ([48]), and transformants were selected by an uracil auxotrophic marker. Transformations were confirmed by colony PCR. Both K667 and K667Δpdr5::HIS were transformed with the following plasmids: pUGpd plasmid as a vector-only control (derived from pRS316 [49]); br434 plasmid (derived from pRS316 [50]) containing the SERCA1a coding region from rabbit skeletal fast-twitch muscle (pbr434-SERCA1a); and pUGpd containing the yeast-optimized coding region of PfATP6 from Plasmodium falciparum (pUGpd-PfATP6). Site-directed mutagenesis was performed on the SERCA1a coding region to produce the mutation E255L in the protein. Mutations were also introduced into the PfATP6 coding region to produce mutations L263E, A623E, and S769N and the double mutation A623E/S769N ([13]).
The screening assay used here was developed from the protocol used by Pulcini et al. ([13]). […] The optimal calcium concentration was periodically monitored and, if necessary, adjusted using a calcium concentration range of 10 to 30 mM. […] The yeast growth was estimated from the absorbance at 620 nm in a Tecan plate reader. […] The data collected were analyzed using GraphPad Prism v9.0 (GraphPad software, San Diego, CA, U.S.A).

[2] = molecular target: PfATP6 (Plasmodium falciparum, UniProt Q08853); test: In vitro activity assay, PfATP6 (membrane-bound); type: biochemical; design: pUGpd containing the yeast-optimized coding region of PfATP6 from Plasmodium falciparum; expressed in transfected cells; details: 1 μM free calcium
PfATP6, sequence (Q08853 whole entry): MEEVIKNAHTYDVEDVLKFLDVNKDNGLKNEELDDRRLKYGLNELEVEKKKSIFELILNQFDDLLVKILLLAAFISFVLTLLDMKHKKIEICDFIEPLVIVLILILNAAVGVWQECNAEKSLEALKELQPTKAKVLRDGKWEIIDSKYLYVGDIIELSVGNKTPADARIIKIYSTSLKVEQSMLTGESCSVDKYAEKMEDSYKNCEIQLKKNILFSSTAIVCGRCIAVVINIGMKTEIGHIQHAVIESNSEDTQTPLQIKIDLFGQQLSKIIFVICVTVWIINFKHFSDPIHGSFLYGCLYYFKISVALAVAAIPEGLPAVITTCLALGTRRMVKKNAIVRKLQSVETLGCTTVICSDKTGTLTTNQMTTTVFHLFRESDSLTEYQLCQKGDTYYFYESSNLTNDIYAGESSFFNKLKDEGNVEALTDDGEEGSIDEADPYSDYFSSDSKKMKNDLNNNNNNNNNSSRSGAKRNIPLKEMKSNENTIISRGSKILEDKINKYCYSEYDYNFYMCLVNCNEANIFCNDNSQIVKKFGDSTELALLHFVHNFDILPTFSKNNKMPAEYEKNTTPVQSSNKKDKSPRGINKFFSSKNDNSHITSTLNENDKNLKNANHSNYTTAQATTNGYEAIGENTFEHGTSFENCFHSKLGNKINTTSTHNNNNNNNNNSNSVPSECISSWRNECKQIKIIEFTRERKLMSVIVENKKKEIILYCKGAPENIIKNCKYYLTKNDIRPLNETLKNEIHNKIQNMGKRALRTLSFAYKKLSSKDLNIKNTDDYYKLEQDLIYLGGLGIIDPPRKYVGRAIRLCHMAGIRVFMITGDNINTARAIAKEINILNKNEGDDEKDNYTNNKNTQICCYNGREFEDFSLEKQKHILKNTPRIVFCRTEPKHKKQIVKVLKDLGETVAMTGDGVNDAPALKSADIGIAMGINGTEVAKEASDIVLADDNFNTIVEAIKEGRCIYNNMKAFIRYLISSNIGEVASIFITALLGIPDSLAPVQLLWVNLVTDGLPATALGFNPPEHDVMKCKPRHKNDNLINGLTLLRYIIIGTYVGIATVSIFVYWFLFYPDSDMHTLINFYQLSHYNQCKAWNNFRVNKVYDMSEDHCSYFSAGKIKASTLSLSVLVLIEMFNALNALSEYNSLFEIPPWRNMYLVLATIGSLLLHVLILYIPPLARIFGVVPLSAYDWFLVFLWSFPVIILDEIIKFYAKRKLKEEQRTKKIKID
Description: Activity assays were performed as described by Longland et al. ([55]) and LeBel et al. ([56]), except that the reaction mixtures were incubated at 30°C instead of 37°C. […] Then, 5.8 mM ATP was added and incubated for an additional 15 min at 30°C. The reaction was stopped with 0.5 mL 6.5% trichloroacetic acid (TCA) on ice, and the mixture was centrifuged at 4°C for 10 min at 16,000 × g; 0.5 mL of the supernatant was added to 1.5 mL of copper acetate buffer (0.25% copper sulfate pentahydrate, 4.6% sodium acetate trihydrate, dissolved in 2 M acetic acid [pH 4.0]) and mixed by vortex-mixing before the addition of 0.25 mL of 5% ammonium molybdate, followed by 0.25 mL METOL buffer (2% p-methyl-aminophenol sulfate, 5% sodium sulfite). Samples were incubated for 10 min, and the absorbance was measured at 870 nm in a spectrophotometer. The Pi standard was 0.4387 g/100 mL KH2PO4.

## CC(=O)C1=C(O)[C@@H]2[C@H]3c4c[nH]c5cccc(c45)C[C@H]3C(C)(C)N2C1=O [CPA, cyclopiazonic acid]
[1]
  IC50: 6.61 µM
[2]
  in vitro activity of PfATP6 versus no drug control: No significant
